Blank lines part the entries; values can stand above or below the compound they belong to.
What was measured:
[1] = molecular target: Rho-associated protein kinase 2 (Homo sapiens, UniProt O75116); experiment: Inhibition of ROCK2 (unknown origin)
[2] = molecular target: Rho-associated protein kinase 1 (Homo sapiens, UniProt Q13464); experiment: Inhibition of ROCK1 (unknown origin)
[3] = Ratio of olaparib IC50 to test compound IC50 for antiproliferative against BRCA deficient human HCC1937 cells; format: functional
[4] = Ratio of olaparib IC50 to test compound IC50 for antiproliferative against BRCA proficient human MCF7 cells; format: functional
[5] = molecular target: T1, Poly [ADP-ribose] polymerase 1 (Homo sapiens, UniProt P09874); experiment: Inhibition of PARP1 (unknown origin) at […] relative to control
T1 sequence (P09874 whole entry): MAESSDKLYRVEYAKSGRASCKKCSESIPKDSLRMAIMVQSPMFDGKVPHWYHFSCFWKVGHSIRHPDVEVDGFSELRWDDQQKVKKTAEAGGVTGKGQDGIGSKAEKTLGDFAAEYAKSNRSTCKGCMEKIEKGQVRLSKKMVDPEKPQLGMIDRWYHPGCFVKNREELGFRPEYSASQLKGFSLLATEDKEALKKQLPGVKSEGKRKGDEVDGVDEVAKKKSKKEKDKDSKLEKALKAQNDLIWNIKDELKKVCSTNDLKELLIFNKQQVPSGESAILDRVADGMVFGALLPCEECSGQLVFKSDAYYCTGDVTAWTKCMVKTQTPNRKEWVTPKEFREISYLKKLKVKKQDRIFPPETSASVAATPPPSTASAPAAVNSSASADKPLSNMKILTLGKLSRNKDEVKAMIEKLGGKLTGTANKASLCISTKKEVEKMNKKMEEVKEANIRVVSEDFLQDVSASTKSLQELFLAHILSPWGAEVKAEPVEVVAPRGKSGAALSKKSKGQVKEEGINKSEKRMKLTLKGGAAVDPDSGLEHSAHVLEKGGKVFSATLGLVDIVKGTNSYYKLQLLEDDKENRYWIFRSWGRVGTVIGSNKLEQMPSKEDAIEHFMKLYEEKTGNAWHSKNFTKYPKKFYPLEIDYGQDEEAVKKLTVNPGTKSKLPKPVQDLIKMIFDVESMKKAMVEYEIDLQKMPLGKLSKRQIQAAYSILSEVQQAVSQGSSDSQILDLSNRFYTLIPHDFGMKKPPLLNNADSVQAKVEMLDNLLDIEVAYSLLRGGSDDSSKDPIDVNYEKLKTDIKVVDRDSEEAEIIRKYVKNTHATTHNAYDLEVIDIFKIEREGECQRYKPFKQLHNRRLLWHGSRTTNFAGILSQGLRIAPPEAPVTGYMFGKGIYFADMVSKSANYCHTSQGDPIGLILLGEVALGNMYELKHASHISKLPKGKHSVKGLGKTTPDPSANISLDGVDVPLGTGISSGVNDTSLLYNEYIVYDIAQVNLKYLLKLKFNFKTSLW

[6] = molecular target: T2, Bromodomain-containing protein 4 (Homo sapiens, UniProt O60885); experiment: Inhibition of BRD4 (unknown origin) at […] relative to control
[7] = Inhibition of PARP (unknown origin); set-up: species or system Homo sapiens
[8] = molecular target: Poly [ADP-ribose] polymerase 2 (Homo sapiens, UniProt Q9UGN5); experiment: Inhibition of PARP2 (unknown origin) incubated for 60 mins by microplate assay kit method
Chain of Poly [ADP-ribose] polymerase 2 (Q9UGN5 whole entry): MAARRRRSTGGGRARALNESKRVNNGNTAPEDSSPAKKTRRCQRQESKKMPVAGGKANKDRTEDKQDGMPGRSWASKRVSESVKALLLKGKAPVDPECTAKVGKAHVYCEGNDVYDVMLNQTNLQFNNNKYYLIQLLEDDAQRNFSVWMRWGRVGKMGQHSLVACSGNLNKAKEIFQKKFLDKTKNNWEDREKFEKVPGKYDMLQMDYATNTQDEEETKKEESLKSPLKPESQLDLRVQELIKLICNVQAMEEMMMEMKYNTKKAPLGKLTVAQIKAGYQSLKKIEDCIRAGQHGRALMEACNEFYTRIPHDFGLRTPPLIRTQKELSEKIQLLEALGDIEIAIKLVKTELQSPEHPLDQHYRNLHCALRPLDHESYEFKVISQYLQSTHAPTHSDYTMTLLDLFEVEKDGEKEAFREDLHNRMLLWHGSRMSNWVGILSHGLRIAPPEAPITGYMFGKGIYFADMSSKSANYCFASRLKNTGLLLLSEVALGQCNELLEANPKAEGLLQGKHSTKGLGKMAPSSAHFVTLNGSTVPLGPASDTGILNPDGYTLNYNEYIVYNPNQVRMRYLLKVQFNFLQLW

[9] = Inhibition of porcine brain microtubule polymerization incubated for 105 mins by fluorescent based assay; set-up: species or system Sus scrofa
[10] = molecular target: T1, Poly [ADP-ribose] polymerase 1; experiment: Inhibition of PARP1 (unknown origin) incubated for 60 mins by microplate assay kit method
MCF7 = experiment: Antiproliferative activity against BRCA proficient human MCF7 cells assessed as inhibition of cell growth incubated for 48 hrs by MTT assay; format: functional, cell-based; conditions: MCF7, 48 h
HCC1937 = experiment: Antiproliferative activity against BRCA deficient human HCC1937 cells assessed as inhibition of cell growth incubated for 48 hrs by MTT assay; format: functional, cell-based; conditions: HCC1937, 48 h
[11] = molecular target: T1, Poly [ADP-ribose] polymerase 1; experiment: Inhibition of PARP1 (unknown origin) relative to control; conditions: concentration not given here
[12] = Tmax in Sprague-Dawley rat plasma at 10 mg/kg, po; format: ADME, organism-based; conditions: in vivo
[13] = AUC (0 to infinity) in Sprague-Dawley rat plasma at 10 mg/kg, po; format: ADME, organism-based; set-up: time infinity, dose 10 mg/kg, route po; conditions: in vivo
[14] = molecular target: T1, Poly [ADP-ribose] polymerase 1; experiment: Inhibition of PARP1 (unknown origin)
[15] = molecular target: T2, Bromodomain-containing protein 4; experiment: Inhibition of BRD4 (unknown origin)
[16] = MRT in Sprague-Dawley rat plasma at 10 mg/kg, po; format: ADME, organism-based
[17] = Half life in Sprague-Dawley rat plasma at 10 mg/kg, po; format: ADME, organism-based; conditions: in vivo
[18] = molecular target: T3, Bromodomain-containing protein 1 (Homo sapiens, UniProt O95696); experiment: Inhibition of BRD1 (unknown origin)
T3 sequence (O95696 whole entry): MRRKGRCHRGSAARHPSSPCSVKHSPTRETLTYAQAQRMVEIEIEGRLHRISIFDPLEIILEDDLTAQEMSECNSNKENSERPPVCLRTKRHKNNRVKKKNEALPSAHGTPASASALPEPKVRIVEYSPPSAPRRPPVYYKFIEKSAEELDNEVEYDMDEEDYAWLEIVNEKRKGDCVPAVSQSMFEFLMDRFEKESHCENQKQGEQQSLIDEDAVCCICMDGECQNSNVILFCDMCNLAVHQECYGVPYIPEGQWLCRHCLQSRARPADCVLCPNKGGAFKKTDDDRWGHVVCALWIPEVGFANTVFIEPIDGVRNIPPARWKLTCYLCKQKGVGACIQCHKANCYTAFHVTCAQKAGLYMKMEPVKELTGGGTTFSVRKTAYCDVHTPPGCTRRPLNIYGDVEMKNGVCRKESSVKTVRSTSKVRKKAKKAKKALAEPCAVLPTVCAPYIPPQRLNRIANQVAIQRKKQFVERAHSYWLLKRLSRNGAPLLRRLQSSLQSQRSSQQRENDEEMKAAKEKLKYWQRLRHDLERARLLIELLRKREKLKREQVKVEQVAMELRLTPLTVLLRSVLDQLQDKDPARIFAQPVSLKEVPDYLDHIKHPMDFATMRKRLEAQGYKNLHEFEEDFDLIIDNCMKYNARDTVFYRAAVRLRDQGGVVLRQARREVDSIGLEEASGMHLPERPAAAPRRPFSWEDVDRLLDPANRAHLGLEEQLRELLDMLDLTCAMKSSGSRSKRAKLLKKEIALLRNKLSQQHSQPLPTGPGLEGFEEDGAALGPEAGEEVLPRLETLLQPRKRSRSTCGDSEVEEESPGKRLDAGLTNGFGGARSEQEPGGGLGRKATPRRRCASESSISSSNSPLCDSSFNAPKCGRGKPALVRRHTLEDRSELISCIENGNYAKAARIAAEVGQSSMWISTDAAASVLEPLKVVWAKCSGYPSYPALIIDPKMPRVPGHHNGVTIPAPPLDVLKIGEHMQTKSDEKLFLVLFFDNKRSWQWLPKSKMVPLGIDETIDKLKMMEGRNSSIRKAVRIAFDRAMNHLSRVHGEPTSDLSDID

[19] = molecular target: T2, Bromodomain-containing protein 4; experiment: Ratio of IC50 for RVX-208 to IC50 for test compound for BRD4 (unknown origin)
[20] = molecular target: Bromodomain-containing protein 2 (Homo sapiens, UniProt P25440); experiment: Inhibition of BRD2 (unknown origin)
Chain of Bromodomain-containing protein 2 (P25440 whole entry): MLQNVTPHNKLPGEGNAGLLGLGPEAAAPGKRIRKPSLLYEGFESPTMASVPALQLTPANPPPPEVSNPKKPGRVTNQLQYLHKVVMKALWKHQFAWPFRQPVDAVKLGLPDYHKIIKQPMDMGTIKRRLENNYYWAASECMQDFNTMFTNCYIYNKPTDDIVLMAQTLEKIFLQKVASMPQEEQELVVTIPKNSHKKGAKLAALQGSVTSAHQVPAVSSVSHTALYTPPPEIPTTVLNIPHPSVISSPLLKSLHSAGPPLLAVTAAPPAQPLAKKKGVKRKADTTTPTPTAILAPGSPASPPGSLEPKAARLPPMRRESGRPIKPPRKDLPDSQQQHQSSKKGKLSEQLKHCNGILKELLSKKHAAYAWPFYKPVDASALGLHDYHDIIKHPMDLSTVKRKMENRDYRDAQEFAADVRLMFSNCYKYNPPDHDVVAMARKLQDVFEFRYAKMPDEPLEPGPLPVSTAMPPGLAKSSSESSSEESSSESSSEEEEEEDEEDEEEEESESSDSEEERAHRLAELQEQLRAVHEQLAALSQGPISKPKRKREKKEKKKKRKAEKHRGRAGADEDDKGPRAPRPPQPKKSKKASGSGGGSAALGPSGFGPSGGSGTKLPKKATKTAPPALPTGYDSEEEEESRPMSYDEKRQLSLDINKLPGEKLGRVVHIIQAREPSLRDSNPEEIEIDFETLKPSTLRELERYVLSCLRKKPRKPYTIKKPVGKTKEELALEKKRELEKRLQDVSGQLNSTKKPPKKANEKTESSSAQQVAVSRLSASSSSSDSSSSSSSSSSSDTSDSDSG

[21] = Cmax in Sprague-Dawley rat plasma at 10 mg/kg, po; format: ADME, organism-based; set-up: dose 10 mg/kg, route po; conditions: in vivo
[22] = molecular target: T2, Bromodomain-containing protein 4; experiment: Inhibition of BRD4 (unknown origin) relative to control; conditions: concentration not given here
[23] = molecular target: Dihydroorotate dehydrogenase (quinone), mitochondrial (Homo sapiens, UniProt Q02127); experiment: Inhibition of DHODH (unknown origin)
Chain of Dihydroorotate dehydrogenase (quinone), mitochondrial (Q02127 whole entry): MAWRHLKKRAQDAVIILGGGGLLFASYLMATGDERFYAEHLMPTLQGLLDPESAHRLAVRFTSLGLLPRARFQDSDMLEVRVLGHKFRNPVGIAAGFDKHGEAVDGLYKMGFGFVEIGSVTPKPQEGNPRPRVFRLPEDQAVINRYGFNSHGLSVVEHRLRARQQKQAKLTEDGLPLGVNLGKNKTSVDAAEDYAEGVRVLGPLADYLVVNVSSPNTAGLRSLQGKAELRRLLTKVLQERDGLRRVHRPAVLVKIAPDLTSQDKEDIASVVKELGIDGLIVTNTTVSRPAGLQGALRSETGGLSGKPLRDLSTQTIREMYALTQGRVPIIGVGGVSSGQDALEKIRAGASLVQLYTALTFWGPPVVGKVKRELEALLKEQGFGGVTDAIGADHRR

Chain of Rho-associated protein kinase 2 (O75116 whole entry): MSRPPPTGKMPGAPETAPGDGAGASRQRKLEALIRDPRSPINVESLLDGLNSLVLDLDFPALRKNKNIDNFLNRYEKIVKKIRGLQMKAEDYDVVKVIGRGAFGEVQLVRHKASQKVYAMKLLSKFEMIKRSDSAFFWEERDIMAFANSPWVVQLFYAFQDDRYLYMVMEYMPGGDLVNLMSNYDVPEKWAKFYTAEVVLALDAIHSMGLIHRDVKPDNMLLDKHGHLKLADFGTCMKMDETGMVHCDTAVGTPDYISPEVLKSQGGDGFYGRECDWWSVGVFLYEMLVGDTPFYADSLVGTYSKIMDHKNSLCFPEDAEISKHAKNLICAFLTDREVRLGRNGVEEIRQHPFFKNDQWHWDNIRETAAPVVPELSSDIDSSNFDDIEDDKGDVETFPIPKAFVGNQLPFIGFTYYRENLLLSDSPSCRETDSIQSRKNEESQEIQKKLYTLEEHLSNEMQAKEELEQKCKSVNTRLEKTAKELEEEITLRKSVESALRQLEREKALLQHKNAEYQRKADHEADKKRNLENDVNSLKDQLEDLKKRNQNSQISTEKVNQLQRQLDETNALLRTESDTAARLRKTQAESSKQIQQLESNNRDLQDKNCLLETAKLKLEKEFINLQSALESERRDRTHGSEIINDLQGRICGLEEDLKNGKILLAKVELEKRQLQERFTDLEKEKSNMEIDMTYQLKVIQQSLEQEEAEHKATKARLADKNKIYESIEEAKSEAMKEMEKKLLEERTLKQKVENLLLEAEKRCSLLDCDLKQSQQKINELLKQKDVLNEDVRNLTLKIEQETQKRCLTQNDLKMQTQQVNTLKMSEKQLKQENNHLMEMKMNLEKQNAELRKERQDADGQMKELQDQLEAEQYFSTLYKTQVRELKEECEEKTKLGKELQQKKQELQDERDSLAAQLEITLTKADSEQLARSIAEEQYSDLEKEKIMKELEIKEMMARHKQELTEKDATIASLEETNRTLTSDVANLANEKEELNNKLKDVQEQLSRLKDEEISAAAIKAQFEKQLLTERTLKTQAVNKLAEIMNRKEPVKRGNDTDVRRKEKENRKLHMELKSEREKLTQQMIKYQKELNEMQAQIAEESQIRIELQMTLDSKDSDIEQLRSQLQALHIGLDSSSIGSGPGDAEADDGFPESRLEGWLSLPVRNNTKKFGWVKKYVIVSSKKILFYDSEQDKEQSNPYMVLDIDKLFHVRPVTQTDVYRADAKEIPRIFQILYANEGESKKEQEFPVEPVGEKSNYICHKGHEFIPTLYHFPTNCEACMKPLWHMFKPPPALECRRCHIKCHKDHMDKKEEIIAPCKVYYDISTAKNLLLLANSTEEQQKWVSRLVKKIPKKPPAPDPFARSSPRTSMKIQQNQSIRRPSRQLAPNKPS

IC50 [1]: 20500 nM | IC50 [2]: 9300 nM
SMILES: O=C(COc1cccc2c(=O)[nH]ccc12)c1ccccc1

SMILES: O=C1/C(=C/c2ccncc2)CN(C(=O)c2cc(Cc3n[nH]c(=O)c4ccccc34)ccc2F)C/C1=C\c1ccncc1
Ratio IC50 [3]: 40 | Ratio IC50 [4]: 200

inhibition [5]: 65% | inhibition [6]: 30%
SMILES: COc1cc(OC)c2c(=O)[nH]c(-c3ccc([C@@H]4CCCNC4)cc3)nc2c1

IC50 [7]: 44000 nM
SMILES: CC(=O)Nc1ccc(COc2ccc(-c3ccc(-c4nc5c(C(=O)O)cc(C)cc5[nH]4)cc3)cc2)cc1

IC50 [8]: 50 nM | IC50 [9]: 990 nM | IC50 [10]: 5 nM
SMILES: CCOC(=O)Nc1nc2ccc(-c3cc(Cc4n[nH]c(=O)c5ccccc45)ccc3F)cc2[nH]1

IC50 (MCF7): 232000 nM | IC50 (HCC1937): 83100 nM
SMILES: O=C(c1cc(Cc2n[nH]c(=O)c3ccccc23)ccc1F)N1CCN(C(=O)C2CC2)CC1 [OLAPARIB]

inhibition [11]: 88% | Tmax [12]: 1.58 h | AUC [13]: 144.7 ng·h/mL | IC50 [14]: 4600 nM | IC50 [15]: 400 nM | MRT [16]: 5.35 h | t1/2 [17]: 3.1 h | IC50 [18]: 440 nM | Ratio IC50 [19]: 30 | IC50 [20]: 379 nM | Cmax [21]: 26.65 ng/mL | inhibition [22]: 92%
SMILES: COc1cc(OC)c2c(=O)[nH]c(-c3ccc(OCCOc4ccccc4C(N)=O)cc3)nc2c1

IC50 [7]: 84 nM | IC50 [23]: 48000 nM
SMILES: O=C(O)c1cc(F)cc2[nH]c(-c3ccc(-c4ccc(NC(=O)C5CC5)cc4F)cc3F)nc12

IC50 [7]: 460 nM
SMILES: CC(=O)Nc1cccc(-c2ccc(-c3nc4c(C(N)=O)cccc4[nH]3)cc2)c1

IC50 [7]: 61 nM
SMILES: NC(=O)c1cccc2[nH]c(-c3ccc(-c4cncc(CN5CCCC5)c4)cc3)nc12

Reference: ChEMBL document CHEMBL5136991, “Dual-target inhibitors of poly (ADP-ribose) polymerase-1 for cancer therapy: Advances, challenges, and opportunities” (Eur J Med Chem, 2022)
